According to the supplement of paper PMC10307832:

Assays:
Experiment in all cases: relative viability (nuclei count vs DMSO), 5 days (fraction); higher = more cells survive
Zebularine + Vorinostat = compound: O=c1ncccn1[C@@H]1O[C@H](CO)[C@@H](O)[C@H]1O [Zebularine] + O=C(CCCCCCC(=O)Nc1ccccc1)NO [Vorinostat] (partner 1 µM)
In short: (§1)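 Lung cancer cell lines, seeded in 1536-well plates, were treated the following day by pin tool with a single drug or with five library-drug doses (not always all listed) in √10 steps on top of a fixed anchor-drug dose. Cells were fixed and nuclei stained in one step after 5 days, and nuclei were counted. Relative viability is the nuclei count for treated wells divided by that for vehicle wells, reported as medians of duplicate plates.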

BI-D1870 + Phenformin = compound: CC(C)CCN1c2nc(Nc3cc(F)c(O)c(F)c3)ncc2N(C)C(=O)C1C [BI-D1870] + N=C(N)NC(=N)NCCc1ccccc1 [Phenformin] (partner 250 µM)
In short: as §1

Zebularine + Lapatinib = compound: O=c1ncccn1[C@@H]1O[C@H](CO)[C@@H](O)[C@H]1O [Zebularine] + CS(=O)(=O)CCNCc1ccc(-c2ccc3ncnc(Nc4ccc(OCc5cccc(F)c5)c(Cl)c4)c3c2)o1 [Lapatinib] (partner 2 µM)
In short: as §1

BI-D1870 + Vorinostat = compound: CC(C)CCN1c2nc(Nc3cc(F)c(O)c(F)c3)ncc2N(C)C(=O)C1C [BI-D1870] + O=C(CCCCCCC(=O)Nc1ccccc1)NO [Vorinostat] (partner 1 µM)
In short: as §1

Row | Cell Line | relative viability (Zebularine + Vorinostat; first compound 1 µM) | relative viability (Zebularine + Vorinostat; first compound 3.162 µM) | relative viability (Zebularine + Vorinostat; first compound 10 µM) | relative viability (Zebularine + Vorinostat; first compound 31.62 µM) | relative viability (Zebularine + Vorinostat; first compound 100 µM) | relative viability (BI-D1870 + Phenformin; first compound 0.04 µM) | relative viability (BI-D1870 + Phenformin; first compound 0.1265 µM) | relative viability (BI-D1870 + Phenformin; first compound 0.4 µM) | relative viability (BI-D1870 + Phenformin; first compound 1.265 µM) | relative viability (BI-D1870 + Phenformin; first compound 4 µM) | relative viability (Zebularine + Lapatinib; first compound 1 µM) | relative viability (Zebularine + Lapatinib; first compound 3.162 µM) | relative viability (Zebularine + Lapatinib; first compound 10 µM) | relative viability (Zebularine + Lapatinib; first compound 31.62 µM) | relative viability (Zebularine + Lapatinib; first compound 100 µM) | relative viability (BI-D1870 + Vorinostat; first compound 0.04 µM) | relative viability (BI-D1870 + Vorinostat; first compound 0.1265 µM) | relative viability (BI-D1870 + Vorinostat; first compound 0.4 µM) | relative viability (BI-D1870 + Vorinostat; first compound 1.265 µM) | relative viability (BI-D1870 + Vorinostat; first compound 4 µM)
1 | NCI-H1793 | 0.819 | 0.895 | 0.41 | 0.448 | 0.328 | 0.387 | 0.311 | 0.389 | 0.423 | 0.27 | 0.826 | 0.882 | 0.339 | 0.648 | 0.304 | 0.914 | 0.718 | 0.615 | 1.04 | 0.606
2 | NCI-H2023 | 0.946 | 0.561 | 0.509 | 0.518 | 0.216 | 0.487 | 0.367 | 0.408 | 0.416 | 0.308 | 1.03 | 0.686 | 0.786 | 0.717 | 0.292 | 0.795 | 0.507 | 0.571 | 0.643 | 0.457
3 | COR-L 105 | 1.38 | 0.898 | 0.734 | 0.945 | 0.619 | 0.562 | 0.396 | 0.422 | 0.489 | 0.5 | 0.388 | 0.367 | 0.362 | 0.361 | 0.364 | 0.804 | 0.837 | 0.77 | 0.875 | 0.765
4 | RERF-LC-KJ | 0.734 | 0.738 | 0.633 | 0.762 | 0.683 | 0.422 | 0.396 | 0.407 | 0.435 | 0.285 | 0.901 | 0.946 | – | 0.92 | 0.863 | 0.66 | 0.633 | 0.669 | 0.642 | 0.47
5 | LXF-289 | 0.853 | 0.809 | 0.635 | 0.667 | 0.254 | 0.561 | 0.493 | 0.491 | 0.529 | 0.451 | 0.986 | 0.92 | 0.818 | 0.783 | 0.271 | 0.681 | 0.738 | 0.695 | 0.695 | 0.527
6 | PC-14 | 0.756 | 0.439 | 0.214 | 0.154 | 0.0885 | 0.669 | 0.521 | 0.587 | 0.627 | 0.447 | 0.448 | 0.296 | 0.201 | 0.163 | 0.126 | 0.825 | 0.625 | 0.58 | 0.699 | 0.569
7 | NCI-H650 | 0.398 | 0.376 | 0.343 | 0.297 | 0.225 | 0.444 | 0.446 | 0.432 | 0.38 | 0.322 | 1.32 | 0.805 | 0.496 | 0.565 | 0.276 | 0.478 | 0.407 | 0.413 | 0.413 | 0.386
8 | NCI-H1666 | 1.01 | 1.02 | 0.752 | 1.09 | 0.939 | 0.572 | 0.521 | 0.592 | 0.58 | 0.537 | 0.561 | 0.57 | 0.49 | 0.667 | 0.593 | 1.03 | 1.01 | 0.942 | 0.956 | 1.02
9 | NCI-H2085 | 0.804 | 0.835 | 0.662 | 0.755 | 0.465 | 0.806 | 0.658 | 0.676 | 0.69 | 0.52 | 0.833 | 0.747 | 0.647 | 0.773 | 0.633 | 0.828 | 0.733 | 0.709 | 0.781 | 0.509
10 | NCI-H1734 | 0.983 | 0.717 | 0.425 | 0.401 | 0.253 | 0.402 | 0.379 | 0.412 | 0.43 | 0.376 | 1.05 | 1.01 | 0.452 | 0.5 | 0.493 | 0.805 | 0.744 | 0.78 | 0.779 | 0.617
11 | NCI-H2126 | 0.664 | 0.524 | 0.853 | 0.698 | 0.474 | 0.525 | 0.493 | 0.508 | 0.53 | 0.511 | 0.843 | 0.774 | 0.695 | 0.76 | 0.619 | 0.802 | 0.718 | 0.719 | 0.735 | 0.578
12 | EMC-BAC-2 | 0.521 | 0.481 | 0.495 | 0.42 | 0.481 | 0.578 | 0.519 | 0.53 | 0.549 | 0.499 | 0.984 | 0.964 | 0.647 | 0.968 | 0.981 | 0.495 | 0.519 | 0.397 | 0.461 | 0.413
13 | NCI-H1993 | 0.73 | 0.763 | 0.754 | 0.741 | 0.559 | 0.482 | 0.403 | 0.487 | 0.468 | 0.572 | 0.848 | 0.691 | – | 0.718 | 0.735 | 0.763 | 0.689 | 0.767 | 1.1 | 0.631
14 | NCI-H520 | 0.752 | 0.685 | 0.462 | 0.45 | 0.242 | 0.514 | 0.596 | 0.584 | 0.537 | 0.429 | 1.14 | 0.863 | 0.477 | 0.277 | 0.256 | 0.716 | 0.755 | 0.649 | 0.464 | 0.198
15 | NCI-H647 | 0.481 | 0.586 | 0.165 | 0.165 | 0.12 | 0.659 | 0.466 | 0.62 | 0.513 | 0.324 | 1.35 | 1.03 | 0.227 | 0.212 | 0.14 | 0.666 | 0.346 | 0.669 | 0.536 | 0.335
